Measurements taken from the supplement of paper PMC10307832.

Legend:
Test in all cases: relative viability (nuclei count vs DMSO), 5 days (fraction); higher = more cells survive
[1] = compound: COc1cc2ncn(-c3cc(OCc4ccccc4C(F)(F)F)c(C(N)=O)s3)c2cc1OC
In short: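 Lung cancer cell lines were seeded into 1536-well plates, kept overnight at 37 °C and pinned with five library-drug doses (not always all listed) spaced by √10. After 5 days, nuclei were Hoechst-stained, imaged at 4× and counted with MetaXpress. Viability is treated-well nuclei over vehicle-well nuclei, taken as a median across plates. Plates needed control CV below 25% and at least one doubling.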

[2] = compound: COc1cc2ncn(-c3cc(OCc4ccccc4C(F)(F)F)c(C(N)=O)s3)c2cc1OC + CC(=O)c1c(C)c2cnc(Nc3ccc(N4CCNCC4)cn3)nc2n(C2CCCC2)c1=O [Palbociclib] (partner 0.5 µM)
In short: (§1)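 Values are medians from duplicate plates. Each reflects relative viability, defined as the nuclei count of treated wells over that of vehicle wells. Lung cancer cell lines in 1536-well plates were pin-tool dosed one day after seeding with one drug alone or with a fixed anchor-drug dose plus five library-drug doses (not always all listed) in √10 steps, then fixed, stained and imaged at 4× after 5 days.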

[3] = compound: COc1cc2ncn(-c3cc(OCc4ccccc4C(F)(F)F)c(C(N)=O)s3)c2cc1OC + COc1cc2c(Oc3ccc(NC(=O)C4(C(=O)Nc5ccc(F)cc5)CC4)cc3F)ccnc2cc1OCCCN1CCOCC1 [Foretinib] (partner 0.25 µM)
In short: as §1

[4] = compound: COc1cc2ncn(-c3cc(OCc4ccccc4C(F)(F)F)c(C(N)=O)s3)c2cc1OC + COc1cccc2cc(-c3nc([C@H]4CC[C@H](C(=O)O)CC4)n4ncnc(N)c34)[nH]c12 [OSI-027] (partner 0.5 µM)
In short: as §1

Row | Cell Line | relative viability ([1]; 0.05 µM) | relative viability ([1]; 0.1581 µM) | relative viability ([1]; 0.5 µM) | relative viability ([1]; 1.581 µM) | relative viability ([1]; 5 µM) | relative viability ([2]; first compound 0.05 µM) | relative viability ([2]; first compound 0.1581 µM) | relative viability ([2]; first compound 0.5 µM) | relative viability ([2]; first compound 1.581 µM) | relative viability ([2]; first compound 5 µM) | relative viability ([3]; first compound 0.05 µM) | relative viability ([3]; first compound 0.1581 µM) | relative viability ([3]; first compound 0.5 µM) | relative viability ([3]; first compound 1.581 µM) | relative viability ([3]; first compound 5 µM) | relative viability ([4]; first compound 0.05 µM) | relative viability ([4]; first compound 0.1581 µM) | relative viability ([4]; first compound 0.5 µM) | relative viability ([4]; first compound 1.581 µM) | relative viability ([4]; first compound 5 µM)
1 | NCI-H322M | 0.982 | 1.11 | 0.79 | 0.517 | 0.325 | 0.519 | 0.511 | 0.457 | 0.429 | 0.484 | 0.956 | 1.16 | 0.857 | 0.499 | 0.406 | 0.512 | 0.541 | 0.462 | 0.319 | 0.239
2 | NCI-H358 | 0.908 | 1.03 | 0.475 | 0.166 | 0.164 | 0.139 | 0.126 | 0.11 | 0.0792 | 0.0843 | 0.724 | 0.71 | 0.484 | 0.0999 | 0.0726 | 0.744 | 0.726 | 0.549 | 0.0578 | 0.067
3 | NCI-H441 | 0.846 | 0.683 | 0.209 | 0.217 | 0.196 | 0.243 | 0.255 | 0.172 | 0.125 | 0.147 | 1.03 | 0.871 | 0.266 | 0.249 | 0.226 | 0.553 | 0.495 | 0.2 | 0.245 | 0.237
4 | NCI-H460 | 0.986 | 0.946 | 0.603 | 0.0622 | 0.0847 | 0.185 | 0.172 | 0.173 | 0.0095 | 0.0133 | 1.07 | 0.938 | 0.499 | 0.028 | 0.0214 | 0.625 | 0.616 | 0.227 | 0.0107 | 0.0118
5 | NCI-H520 | 0.946 | 0.975 | 0.649 | 0.212 | 0.198 | 0.149 | 0.253 | 0.179 | 0.155 | 0.121 | 0.892 | 0.836 | 0.357 | 0.249 | 0.204 | 0.28 | 0.29 | 0.27 | 0.163 | 0.175
6 | NCI-H647 | 0.956 | 0.881 | 0.432 | 0.0899 | 0.0672 | 0.436 | 0.39 | 0.174 | 0.0732 | 0.077 | 1.1 | 1.17 | 0.444 | 0.195 | 0.0972 | 0.687 | 0.561 | 0.536 | 0.0932 | 0.0815
7 | NCI-H650 | 0.913 | 0.961 | 0.69 | 0.33 | 0.349 | 0.301 | 0.335 | 0.279 | 0.188 | 0.34 | 0.995 | 1.08 | 0.779 | 0.348 | 0.637 | 0.503 | 0.63 | 0.383 | 0.213 | 0.189
